Test results published in US8716303B2, “N-(hetero)aryl-pyrrolidine derivatives of pyrazol-4-yl-pyrrolo[2,3-d]pyrimidines and pyrrol-3-yl-pyrrolo[2,3-d]pyrimidines as janus kinase inhibitors” (Incyte Corporation, priority 2009, dated 2014).
Structures can show the parent of a compound that is named as a salt.

Legend:
[1] = target: T1, human JAK1 (a.a. 837-1142) (Homo sapiens, UniProt P23458); assay: In vitro JAK kinase assay (HTRF, phosphorylation of a biotinylated peptide), JAK1; format: biochemical
T1 construct: human JAK1 (a.a. 837-1142); His tag (N); made in house; host or cells: insect cells (baculovirus)
Method: (§1) Compounds herein were tested for inhibitory activity of JAK targets according to the following in vitro assay described in Park et al., Analytical Biochemistry 1999, 269, 94-104. The catalytic domains of human JAK1 (a.a. 837-1142), Jak2 (a.a. 828-1132) and Jak3 (a.a. 781-1124) with an N-terminal His tag were expressed using baculovirus in insect cells and purified. The catalytic activity of JAK1, JAK2 or JAK3 was assayed by measuring the phosphorylation of a biotinylated peptide. The phosphorylated peptide was detected by homogenous time resolved fluorescence (HTRF). IC50s of compounds were measured for each kinase in the 40 microL reactions that contain the enzyme, ATP and 500 nM peptide in 50 mM Tris (pH 7.8) buffer with 100 mM NaCl, 5 mM DTT, and 0.1 mg/mL (0.01%) BSA. The ATP concentration in the reactions was 90 μM for Jak1, 30 μM for Jak2 and 3 μM for Jak3 for Km conditions. For the 1 mM IC50 measurements, ATP concentration in the reactions was 1 mM. Reactions were carried out at RT for 1 h and then stopped with 20 μL 45 mM EDTA, 300 nM SA-APC, 6 nM Eu-Py20 in assay buffer (Perkin Elmer, Boston, Mass.). Binding to the Europium labeled antibody took place for 40 min and HTRF signal was measured on a Fusion plate reader (Perkin Elmer, Boston, Mass.).
(§2) Compounds herein were tested for inhibitory activity of JAK1 and JAK2 targets according to the assay of Example A (experiments run at Km or 1 mM as indicated). The symbol “+” indicates an IC50<50 nM; the symbol “++” indicates an IC50≧50 and ≦100 nM; and the symbol “+++” indicates an IC50>100 and ≦500 nM.

Jak2 (a.a. 828-1132) = target: T2, Jak2 (a.a. 828-1132) (Homo sapiens, UniProt O60674); assay: In vitro JAK kinase assay (HTRF, phosphorylation of a biotinylated peptide), JAK2, reported as JAK2/JAK1 ratio; format: biochemical
T2 construct: Jak2 (a.a. 828-1132); His tag (N); made in house; host or cells: insect cells (baculovirus)
Method: as §1, §2

T2 sequence (O60674 828-1132): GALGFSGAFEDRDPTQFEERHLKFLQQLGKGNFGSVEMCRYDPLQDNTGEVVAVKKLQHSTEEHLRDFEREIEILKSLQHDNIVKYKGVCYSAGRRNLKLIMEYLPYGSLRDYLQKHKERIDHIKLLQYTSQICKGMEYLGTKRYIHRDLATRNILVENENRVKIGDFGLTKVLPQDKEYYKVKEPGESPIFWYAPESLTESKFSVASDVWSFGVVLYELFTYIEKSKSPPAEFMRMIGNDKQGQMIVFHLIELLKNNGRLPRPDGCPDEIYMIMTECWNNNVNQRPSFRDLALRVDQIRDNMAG
T1 sequence (P23458 849-1154): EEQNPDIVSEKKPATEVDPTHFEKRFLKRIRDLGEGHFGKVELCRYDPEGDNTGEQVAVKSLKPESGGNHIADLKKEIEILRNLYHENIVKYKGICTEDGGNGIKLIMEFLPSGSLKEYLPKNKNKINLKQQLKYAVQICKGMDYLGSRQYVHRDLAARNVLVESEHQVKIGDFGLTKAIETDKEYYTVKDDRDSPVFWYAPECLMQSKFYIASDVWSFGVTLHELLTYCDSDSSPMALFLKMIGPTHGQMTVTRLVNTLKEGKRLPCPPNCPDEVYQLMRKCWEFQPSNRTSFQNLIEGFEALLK

| IC50 ([1]; Assay Conditions 1 mM ATP) [nM] | JAK2/JAK1 IC50 ratio (Jak2 (a.a. 828-1132); Assay Conditions 1 mM ATP) | IC50 ([1]; Assay Conditions Km (ATP 90 μM for Jak1)) [nM] | JAK2/JAK1 IC50 ratio (Jak2 (a.a. 828-1132); Assay Conditions Km (ATP 90 μM for Jak1, 30 μM for Jak2)) | SMILES |
| --- | --- | --- | --- | --- |
| < 50 | 11.0 | – | – | CSc1ccnc(N2CC[C@H]([C@H](CC#N)n3cc(-c4ncnc5[nH]ccc45)cn3)C2)c1C#N [Example 127, 2-((3S)-3-{(1S)-2-cyano-1-[4-(7H-pyrrolo[2,3-d]pyrimidin-4-yl)-1H-pyrazol-1-yl]ethyl}pyrrolidin-1-yl)-4-(methylthio)nicotinonitrile trifluoroacetate] |
| < 50 | 13.0 | – | – | O=S1(=O)CCc2cc(F)c(N3CC[C@H](C(CF)n4cc(-c5ncnc6[nH]ccc56)cn4)C3)nc21 (stereo partly drawn) [Example 86, 4-(1-{2-fluoro-1-[(3S)-1-(5-fluoro-1,1-dioxido-2,3-dihydrothieno[2,3-b]pyridin-6-yl)pyrrolidin-3-yl]ethyl}-1H-pyrazol-4-yl)-7H-pyrrolo[2,3-d]pyrimidine tetrakis(trifluoroacetate)] |
| < 50 | 5.3 | – | – | CCS(=O)(=O)c1ccc(F)c(N2CC[C@H]([C@H](CC#N)n3cc(-c4ncnc5[nH]ccc45)cn3)C2)n1 [Example 93, (3S)-3-{(3S)-1-[6-(ethylsulfonyl)-3-fluoropyridin-2-yl]pyrrolidin-3-yl}-3-[4-(7H-pyrrolo[2,3-d]pyrimidin-4-yl)-1H-pyrazol-1-yl]propanenitrile trifluoroacetate] |
| < 50 | 17 | – | – | CS(=O)(=O)c1nc(F)c(N2CC[C@H]([C@H](CC#N)n3cc(-c4ncnc5[nH]ccc45)cn3)C2)cc1F [Example 134, (3S)-3-{(3S)-1-[2,5-difluoro-6-(methylsulfonyl)pyridin-3-yl]pyrrolidin-3-yl}-3-[4-(7H-pyrrolo[2,3-d]pyrimidin-4-yl)-1H-pyrazol-1-yl]propanenitrile trifluoroacetate] |
| < 50 | 35.7 | – | – | COCc1cccc(N2CC[C@H]([C@H](CC#N)n3cc(-c4ncnc5[nH]ccc45)cn3)C2)c1C#N [Example 112, 2-((S)-3-((S)-1-(4-(7H-pyrrolo[2,3-d]pyrimidin-4-yl)-1H-pyrazol-1-yl)-2-cyanoethyl)pyrrolidin-1-yl)-6-(methoxymethyl)benzonitrile] |
| < 50 | 16.2 | – | – | COCc1cnc(N2CC[C@H]([C@H](CC#N)n3cc(-c4ncnc5[nH]ccc45)cn3)C2)c(C#N)n1 [Example 141, 3-((3S)-3-{(1S)-2-cyano-1-[4-(7H-pyrrolo[2,3-d]pyrimidin-4-yl)-1H-pyrazol-1-yl]ethyl}pyrrolidin-1-yl)-6-(methoxymethyl)pyrazine-2-carbonitrile trifluoroacetate] |
| < 50 | 4.0 | – | – | COCc1c(F)cnc(N2CC[C@H]([C@H](CC#N)n3cc(-c4ncnc5[nH]ccc45)cn3)C2)c1F [Example 101, (3S)-3-{(3S)-1-[3,5-difluoro-4-(methoxymethyl)pyridin-2-yl]pyrrolidin-3-yl}-3-[4-(7H-pyrrolo[2,3-d]pyrimidin-4-yl)-1H-pyrazol-1-yl]propanenitrile trifluoroacetate] |
| < 50 | 7.7 | – | – | COc1cccc2nc(N3CCC(C(CC#N)n4cc(-c5ncnc6[nH]ccc56)cn4)C3)oc12 (single isomer, unassigned) [Example 162, 3-[1-(7-methoxy-1,3-benzoxazol-2-yl)pyrrolidin-3-yl]-3-[4-(7H-pyrrolo[2,3-d]pyrimidin-4-yl)-1H-pyrazol-1-yl]propanenitrile] |
| < 50 | 17.6 | – | – | N#CC[C@@H]([C@H]1CCN(c2ncnc(C(F)F)c2C#N)C1)n1cc(-c2ncnc3[nH]ccc23)cn1 [Example 110, 4-((S)-3-((S)-1-(4-(7H-pyrrolo[2,3-d]pyrimidin-4-yl)-1H-pyrazol-1-yl)-2-cyanoethyl)pyrrolidin-1-yl)-6-(difluoromethyl)pyrimidine-5-carbonitrile trifluoroacetate salt] |
| < 50 | 4.6 | – | – | N#CC[C@@H]([C@H]1CCN(c2nc3ccsc3cc2C#N)C1)n1cc(-c2ncnc3[nH]ccc23)cn1 [Example 75, 5-((3S)-3-{(1S)-2-cyano-1-[4-(7H-pyrrolo[2,3-d]pyrimidin-4-yl)-1H-pyrazol-1-yl]ethyl}pyrrolidin-1-yl)thieno[3,2-b]pyridine-6-carbonitrile] |
| < 50 | 6.9 | – | – | N#CC[C@@H]([C@H]1CCN(c2nc(Cl)c(N)cc2F)C1)n1cc(-c2ncnc3[nH]ccc23)cn1 [Example 91A, (S)-3-(4-(7H-pyrrolo[2,3-d]pyrimidin-4-yl)-1H-pyrazol-1-yl)-3-((S)-1-(5-amino-6-chloro-3-fluoropyridin-2-yl)pyrrolidin-3-yl)propanenitrile bis(trifluoroacetate)] |

The next lines start with the compound.

| SMILES | IC50 ([1]; Assay Conditions 1 mM ATP) [nM] | JAK2/JAK1 IC50 ratio (Jak2 (a.a. 828-1132); Assay Conditions 1 mM ATP) | IC50 ([1]; Assay Conditions Km (ATP 90 μM for Jak1)) [nM] | JAK2/JAK1 IC50 ratio (Jak2 (a.a. 828-1132); Assay Conditions Km (ATP 90 μM for Jak1, 30 μM for Jak2)) |
| --- | --- | --- | --- | --- |
| CS(=O)(=O)c1cccc(N2CCC(C(CC#N)n3cc(-c4ncnc5[nH]ccc45)cn3)C2)n1 (single isomer, unassigned) [Example 26, 3-{1-[6-(methylsulfonyl)pyridin-2-yl]pyrrolidin-3-yl}-3-[4-(7H-pyrrolo[2,3-d]pyrimidin-4-yl)-1H-pyrazol-1-yl]propanenitrile] | 50 to 100 | 5.2 | – | – |
| N#CC[C@@H]([C@H]1CCN(c2c(F)cccc2C#N)C1)n1cc(-c2ncnc3[nH]ccc23)cn1 [Example 58, 2-((3S)-3-{(1S)-2-cyano-1-[4-(7H-pyrrolo[2,3-d]pyrimidin-4-yl)-1H-pyrazol-1-yl]ethyl}pyrrolidin-l-yl)-3-fluorobenzonitrile trifluoroacetate salt] | < 50 | 8 | – | – |
| N#CCC(C1CCN(c2cccc(Cl)[n+]2[O-])C1)n1cc(-c2ncnc3[nH]ccc23)cn1 (single isomer, unassigned) [Example 45, 3-[1-(6-chloro-1-oxidopyridin-2-yl)pyrrolidin-3-yl]-3-[4-(7H-pyrrolo[2,3-d]pyrimidin-4-yl)-1H-pyrazol-1-yl]propanenitrile] | – | – | < 50 | 7.4 |
| N#CCC(C1CCN(c2ccc3c(n2)SCC3)C1)n1cc(-c2ncnc3[nH]ccc23)cn1 (single isomer, unassigned) [Example 29, 3-[1-(2,3-dihydrothieno[2,3-b]pyridin-6-yl)pyrrolidin-3-yl]-3-[4-(7H-pyrrolo[2,3-d]pyrimidin-4-yl)-1H-pyrazol-1-yl]propanenitrile] | < 50 | 12 | – | – |
| N#CC[C@@H]([C@H]1CCN(c2nccc(C(F)(F)F)c2F)C1)n1cc(-c2ncnc3[nH]ccc23)cn1 [Example 66, (3S)-3-{(3S)-1-[3-fluoro-4-(trifluoromethyl)pyridin-2-yl]pyrrolidin-3-yl}-3-[4-(7H-pyrrolo[2,3-d]pyrimidin-4-yl)-1H-pyrazol-1-yl] propanenitrile trifluoroacetate salt] | < 50 | >20 | – | – |
| FCC([C@@H]1CCN(c2nc3cccnc3o2)C1)n1cc(-c2ncnc3[nH]ccc23)cn1 (stereo partly drawn) [71 (3R- enantiomer), 2-((3R)-3-{2-fluoro-1-[4-(7H-pyrrolo[2,3-d]pyrimidin-4-yl)-1H-pyrazol-1-yl]ethyl}pyrrolidin-1-yl) [1,3]oxazolo[5,4-b]pyridine phosphoric acid salt] | < 50 | 5.9 | – | – |
| N#CCC(C1CCN(c2nc3c(F)cccc3o2)C1)n1cc(-c2ncnc3[nH]ccc23)cn1 (single isomer, unassigned) [Example 20, 3-[1-(4-fluoro-1,3-benzoxazol-2-yl)pyrrolidin-3-yl]-3-[4-(7H-pyrrolo[2,3-d]pyrimidin-4-yl)-1H-pyrazol-1-yl]propanenitrile] | < 50 | 10.4 | – | – |
| COc1cccc(N2CC[C@H]([C@H](CC#N)n3cc(-c4ncnc5[nH]ccc45)cn3)C2)c1C#N [Example 55, 2-((3S)-3-{(1S)-2-cyano-1-[4-(7H-pyrrolo[2,3-d]pyrimidin-4-yl)-1H-pyrazol-1-yl]ethyl}pyrrolidin-1-yl)-6-methoxybenzonitrile trifluoroacetate salt] | < 50 | >8 | – | – |
| N#CCC(C1CCN(c2ccc3c(n2)[S+]([O-])CC3)C1)n1cc(-c2ncnc3[nH]ccc23)cn1 (single isomer, unassigned) [Example 28, 3-[1-(1-oxido-2,3-dihydrothieno[2,3-b]pyridin-6-yl)pyrrolidin-3-yl]-3-[4-(7H-pyrrolo[2,3-d]pyrimidin-4-yl)-1H-pyrazol-1-yl]propanenitrile] | < 50 | 4 | – | – |
| Cn1ccnc(N2CCC(C(CC#N)n3cc(-c4ncnc5[nH]ccc45)cn3)C2)c1=O (racemic) [Example 37, ±3-[1-(4-methyl-3-oxo-3,4-dihydropyrazin-2-yl)pyrrolidin-3-yl]-3-[4-(7H-pyrrolo[2,3-d]pyrimidin-4-yl)-1H-pyrazol-1-yl]propanenitrile trifluoroacetate] | < 50 | >8.7 | – | – |
